Experimental data taken from PubChem BioAssay (NCI).
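48-hour exposure; five concentrations; linearly interpolated endpoints. GI50 = concentration required for 50% inhibition of growth. The concentration for full growth arrest is given as TGI.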

How the values were obtained:
Test in all cases: DTP human tumour cell line panel, 48 h
A549 NSCLC = system: A549 NSCLC
EKVX NSCLC = system: EKVX NSCLC
HCT-15 colon = system: HCT-15 colon
MALME-3M melanoma = system: MALME-3M melanoma
NCI-H226 lung = system: NCI-H226 lung
NCI-H23 lung = system: NCI-H23 lung
OVCAR-8 ovarian = system: OVCAR-8 ovarian
RPMI-8226 leukemia = system: RPMI-8226 leukemia
U251 CNS = system: U251 CNS
UACC-62 melanoma = system: UACC-62 melanoma

SMILES: [N-]=[N+]=NCCCn1c2c(c3ccc([N+](=O)[O-])cc3c1=O)C(=O)c1cc(I)ccc1-2
- GI50 (A549 NSCLC): 8.06 µM
- TGI (A549 NSCLC): > 100 µM
- GI50 (EKVX NSCLC): 22 µM
- TGI (EKVX NSCLC): > 100 µM
- GI50 (HCT-15 colon): 18.5 µM
- TGI (HCT-15 colon): > 100 µM
- GI50 (MALME-3M melanoma): 12.5 µM
- TGI (MALME-3M melanoma): 77 µM
- GI50 (NCI-H226 lung): 14.3 µM
- TGI (NCI-H226 lung): > 100 µM
- GI50 (NCI-H23 lung): 5.41 µM
- TGI (NCI-H23 lung): 55.7 µM
- GI50 (OVCAR-8 ovarian): 11.3 µM
- TGI (OVCAR-8 ovarian): > 100 µM
- GI50 (RPMI-8226 leukemia): 2.17 µM
- TGI (RPMI-8226 leukemia): 59.6 µM
- GI50 (U251 CNS): 2.23 µM
- TGI (U251 CNS): 30.6 µM
- GI50 (UACC-62 melanoma): 3.33 µM
- TGI (UACC-62 melanoma): 18.3 µM

SMILES: COc1ccc(N=N/C(=N\NC(=O)c2cc(Br)ccc2O)c2ccc(N(CCC#N)CCC#N)cc2OC)cc1
- GI50 (A549 NSCLC): 77.1 µg/mL
- TGI (A549 NSCLC): > 150 µg/mL
- GI50 (EKVX NSCLC): > 150 µg/mL
- TGI (EKVX NSCLC): > 150 µg/mL
- GI50 (HCT-15 colon): 42 µg/mL
- TGI (HCT-15 colon): > 150 µg/mL
- GI50 (MALME-3M melanoma): 68.2 µg/mL
- TGI (MALME-3M melanoma): > 150 µg/mL
- GI50 (NCI-H226 lung): 24.2 µg/mL
- TGI (NCI-H226 lung): 88.1 µg/mL
- GI50 (NCI-H23 lung): 110 µg/mL
- TGI (NCI-H23 lung): > 150 µg/mL
- GI50 (OVCAR-8 ovarian): 47.5 µg/mL
- TGI (OVCAR-8 ovarian): > 150 µg/mL
- GI50 (RPMI-8226 leukemia): 74.4 µg/mL
- TGI (RPMI-8226 leukemia): > 150 µg/mL
- GI50 (U251 CNS): > 150 µg/mL
- TGI (U251 CNS): > 150 µg/mL
- GI50 (UACC-62 melanoma): 94.2 µg/mL
- TGI (UACC-62 melanoma): > 150 µg/mL

SMILES: CCC(CC)c1cc(N[C@H]2CC[C@H](N)C2)n2nccc2n1
- GI50 (A549 NSCLC): 0.511 µM
- TGI (A549 NSCLC): > 100 µM
- GI50 (EKVX NSCLC): 1.7 µM
- TGI (EKVX NSCLC): 5.16 µM
- GI50 (HCT-15 colon): 2.23 µM
- TGI (HCT-15 colon): > 100 µM
- GI50 (MALME-3M melanoma): 2.07 µM
- TGI (MALME-3M melanoma): 6.24 µM
- GI50 (NCI-H226 lung): 0.969 µM
- TGI (NCI-H226 lung): 48.7 µM
- GI50 (NCI-H23 lung): 2.2 µM
- TGI (NCI-H23 lung): 8.29 µM
- GI50 (OVCAR-8 ovarian): 2.77 µM
- TGI (OVCAR-8 ovarian): > 100 µM
- GI50 (RPMI-8226 leukemia): 2.61 µM
- TGI (RPMI-8226 leukemia): > 100 µM
- GI50 (U251 CNS): 0.858 µM
- TGI (U251 CNS): > 100 µM
- GI50 (UACC-62 melanoma): 1.45 µM
- TGI (UACC-62 melanoma): 3.46 µM

SMILES: CCC1=C[C@@H]2CN(C1)Cc1c([nH]c3ccccc13)[C@@](C(=O)OC)(c1cc3c(cc1OC)N(C)[C@H]1[C@@](O)(C(=O)OC)[C@H](OC(C)=O)[C@]4(CC)C=CCN5CC[C@]31[C@@H]54)C2
- GI50 (A549 NSCLC): < 0.019 µM
- TGI (A549 NSCLC): > 34.1 µM
- GI50 (EKVX NSCLC): < 0.01 µM
- TGI (EKVX NSCLC): 18.8 µM
- GI50 (HCT-15 colon): 0.141 µM
- TGI (HCT-15 colon): 6.8 µM
- GI50 (MALME-3M melanoma): < 0.01 µM
- TGI (MALME-3M melanoma): 4.92 µM
- GI50 (NCI-H226 lung): < 0.0302 µM
- TGI (NCI-H226 lung): 36.5 µM
- GI50 (NCI-H23 lung): < 0.0187 µM
- TGI (NCI-H23 lung): 41.4 µM
- GI50 (OVCAR-8 ovarian): < 0.0213 µM
- TGI (OVCAR-8 ovarian): 25.6 µM
- GI50 (RPMI-8226 leukemia): < 0.01 µM
- GI50 (U251 CNS): < 0.01 µM
- TGI (U251 CNS): 8.42 µM
- GI50 (UACC-62 melanoma): < 0.01 µM
- TGI (UACC-62 melanoma): 18.6 µM

SMILES: NS(=O)(=O)c1ccc(N=Nc2c(O)[nH]c3ccc(C(=O)NCCc4cnc[nH]4)cc23)cc1
- GI50 (A549 NSCLC): > 25 µM
- TGI (A549 NSCLC): > 25 µM
- GI50 (EKVX NSCLC): > 25 µM
- TGI (EKVX NSCLC): > 25 µM
- GI50 (HCT-15 colon): > 25 µM
- TGI (HCT-15 colon): > 25 µM
- GI50 (MALME-3M melanoma): > 25 µM
- TGI (MALME-3M melanoma): > 25 µM
- GI50 (NCI-H226 lung): > 25 µM
- TGI (NCI-H226 lung): > 25 µM
- GI50 (NCI-H23 lung): > 25 µM
- TGI (NCI-H23 lung): > 25 µM
- GI50 (OVCAR-8 ovarian): > 25 µM
- TGI (OVCAR-8 ovarian): > 25 µM
- GI50 (RPMI-8226 leukemia): > 25 µM
- TGI (RPMI-8226 leukemia): > 25 µM
- GI50 (U251 CNS): > 25 µM
- TGI (U251 CNS): > 25 µM
- GI50 (UACC-62 melanoma): > 25 µM
- TGI (UACC-62 melanoma): > 25 µM

SMILES: O=C(COc1cccc(/C=C2\COc3ccccc3C2=O)c1)c1ccccc1
- GI50 (A549 NSCLC): 15.7 µM
- TGI (A549 NSCLC): 49.7 µM
- GI50 (EKVX NSCLC): 7.98 µM
- TGI (EKVX NSCLC): 20.6 µM
- GI50 (HCT-15 colon): 1.85 µM
- TGI (HCT-15 colon): 4.45 µM
- GI50 (MALME-3M melanoma): 13.1 µM
- TGI (MALME-3M melanoma): 28.2 µM
- GI50 (NCI-H226 lung): 12.3 µM
- TGI (NCI-H226 lung): 25.4 µM
- GI50 (NCI-H23 lung): 4.47 µM
- TGI (NCI-H23 lung): 16.1 µM
- GI50 (OVCAR-8 ovarian): 3.35 µM
- TGI (OVCAR-8 ovarian): 11.2 µM
- GI50 (RPMI-8226 leukemia): 1.84 µM
- TGI (RPMI-8226 leukemia): 4.85 µM
- GI50 (U251 CNS): 1.65 µM
- TGI (U251 CNS): 3.03 µM
- GI50 (UACC-62 melanoma): 3 µM
- TGI (UACC-62 melanoma): 10.2 µM

SMILES: COc1ccc(CN2C(=O)/C(=C\C(=O)c3ccc(OCCN4CCCC4)cc3)c3ccccc32)cc1
- GI50 (A549 NSCLC): 13.2 µM
- TGI (A549 NSCLC): 36.2 µM
- GI50 (EKVX NSCLC): 11.3 µM
- TGI (EKVX NSCLC): 34.2 µM
- GI50 (HCT-15 colon): 1.65 µM
- TGI (HCT-15 colon): 3.24 µM
- GI50 (MALME-3M melanoma): 1.75 µM
- TGI (MALME-3M melanoma): 3.35 µM
- GI50 (NCI-H226 lung): 20.8 µM
- TGI (NCI-H226 lung): 52.9 µM
- GI50 (NCI-H23 lung): 10.9 µM
- TGI (NCI-H23 lung): 36.5 µM
- GI50 (OVCAR-8 ovarian): 2.66 µM
- TGI (OVCAR-8 ovarian): 5.78 µM
- GI50 (RPMI-8226 leukemia): 2.54 µM
- TGI (RPMI-8226 leukemia): 6.29 µM
- GI50 (UACC-62 melanoma): 1.84 µM
- TGI (UACC-62 melanoma): 3.38 µM

SMILES: CC[O-].CC[O-].COc1ccc(C(=O)[CH-]C(C)=O)cc1OC.COc1ccc(C(=O)[CH-]C(C)=O)cc1OC.[Ti+4]
- GI50 (A549 NSCLC): > 100 µM
- TGI (A549 NSCLC): > 100 µM
- GI50 (EKVX NSCLC): 24.6 µM
- TGI (EKVX NSCLC): 79.6 µM
- GI50 (HCT-15 colon): 90.1 µM
- TGI (HCT-15 colon): > 100 µM
- GI50 (MALME-3M melanoma): 35.1 µM
- TGI (MALME-3M melanoma): 86.6 µM
- GI50 (NCI-H226 lung): > 100 µM
- TGI (NCI-H226 lung): > 100 µM
- GI50 (NCI-H23 lung): > 100 µM
- TGI (NCI-H23 lung): > 100 µM
- GI50 (OVCAR-8 ovarian): 81.9 µM
- TGI (OVCAR-8 ovarian): > 100 µM
- GI50 (RPMI-8226 leukemia): 44.6 µM
- TGI (RPMI-8226 leukemia): > 100 µM
- GI50 (UACC-62 melanoma): 56.5 µM
- TGI (UACC-62 melanoma): > 100 µM

SMILES: O=C(Nc1ccccc1)n1cc(-c2ccccn2)c(N2CCOCC2)n1
- TGI (A549 NSCLC): > 100 µM
- TGI (EKVX NSCLC): > 100 µM
- TGI (HCT-15 colon): > 100 µM
- TGI (MALME-3M melanoma): 8.78 µM
- TGI (NCI-H226 lung): > 100 µM
- TGI (OVCAR-8 ovarian): > 100 µM
- TGI (RPMI-8226 leukemia): > 100 µM
- TGI (U251 CNS): > 100 µM
- TGI (UACC-62 melanoma): > 100 µM

SMILES: CC(=O)n1nnc2ccc([N+](=O)[O-])cc21
- TGI (A549 NSCLC): > 100 µM
- TGI (EKVX NSCLC): > 100 µM
- TGI (MALME-3M melanoma): > 100 µM
- TGI (NCI-H226 lung): > 100 µM
- TGI (NCI-H23 lung): > 100 µM
- TGI (OVCAR-8 ovarian): > 100 µM
- TGI (RPMI-8226 leukemia): > 100 µM
- TGI (U251 CNS): > 100 µM
- TGI (UACC-62 melanoma): > 100 µM
